Assay results: ChEMBL document CHEMBL4823305, “Design, synthesis and antibacterial evaluation of novel 3-O-substituted 15-membered azalides possessing 1,2,3-triazole side chains” (2021)
Values after ≈ are worked out from the molar mass of the structure shown. Active and inactive are the calls of the source. The rule behind the calls is not given here.

Experiments:
Staphylococcus aureus [1] = test: Antibacterial activity against penicillin-resistant Staphylococcus aureus by broth microdilution method; assay type: functional
Klebsiella pneumoniae = test: Antibacterial activity against Klebsiella pneumoniae ATCC10031 by broth microdilution method; assay type: functional
Enterococcus faecium = test: Antibacterial activity against clinical isolate erythromycin-resistant Enterococcus faecium by broth microdilution method; assay type: functional
Staphylococcus aureus [2] = test: Antibacterial activity against erythromycin-susceptible Staphylococcus aureus ATCC25923 by broth microdilution method; assay type: functional
Enterococcus faecalis = test: Antibacterial activity against vancomycin-susceptible Enterococcus faecalis ATCC29212 by broth microdilution method; assay type: functional
Bacillus subtilis = test: Antibacterial activity against penicillin-susceptible Bacillus subtilis ATCC9372 by broth microdilution method; assay type: functional
Staphylococcus aureus [3] = test: Bactericidal activity against methicillin-resistant Staphylococcus aureus ATCC43300; assay type: functional
Staphylococcus aureus [4] = test: Antibacterial activity against methicillin-resistant Staphylococcus aureus ATCC43300 by broth microdilution method; assay type: functional
[5] = Ratio of MBC for bactericidal activity against methicillin-resistant Staphylococcus aureus ATCC43300 to MIC for antibacterial activity against methicillin-resistant Staphylococcus aureus ATCC43300 by broth microdilution method; assay type: functional
Staphylococcus aureus [6] = test: Antibacterial activity against methicillin-resistant Staphylococcus aureus ATCC43300 at 0.5 times of MIC measured up to 24 hrs by broth microdilution method; assay type: functional, organism-based; conditions: time hrs <=24
Staphylococcus aureus [7] = test: Antibacterial activity against methicillin-resistant Staphylococcus aureus ATCC43300 at 1 times of MIC measured up to 9 hrs by broth microdilution method; assay type: functional, organism-based; conditions: time hrs <=9
Staphylococcus aureus [8] = test: Bactericidal activity against methicillin-resistant Staphylococcus aureus ATCC43300 at 2 times of MIC measured up to 24 hrs; assay type: functional, organism-based; conditions: time hrs <=24
Staphylococcus aureus [9] = test: Bactericidal activity against methicillin-resistant Staphylococcus aureus ATCC43300 at 4 times of MIC measured up to 24 hrs; assay type: functional, organism-based; conditions: time hrs <=24

Row | SMILES | MIC (Staphylococcus aureus [1]) | MIC (Klebsiella pneumoniae) | MIC (Enterococcus faecium) | MIC (Staphylococcus aureus [2]) | MIC (Enterococcus faecalis) | MIC (Bacillus subtilis) | MBC (Staphylococcus aureus [3]) | MIC (Staphylococcus aureus [4]) | Ratio [5] | inhibition (Staphylococcus aureus [6]) | inhibition (Staphylococcus aureus [7]) | inhibition (Staphylococcus aureus [8]) | inhibition (Staphylococcus aureus [9])
1 | CC[C@H]1OC(=O)[C@H](C)[C@@H](OC(=O)NNC(=O)Cn2cc(-c3ccc(C(C)(C)C)cc3)nn2)[C@H](C)[C@@H](O[C@@H]2O[C@H](C)C[C@H](N(C)C)[C@H]2O)[C@](C)(O)C[C@@H](C)CN(C)[C@H](C)[C@H]2OC(=O)O[C@@]21C | 32 µg/mL (≈ 34.9 µM) | 16 µg/mL (≈ 17.5 µM) | 16 µg/mL (≈ 17.5 µM) | 16 µg/mL (≈ 17.5 µM) | 4 µg/mL (≈ 4.37 µM) | 16 µg/mL (≈ 17.5 µM) | > 256 µg/mL | 32 µg/mL (≈ 34.9 µM) | >8 | – | – | – | –
2 | CCCCCc1ccc(-c2cn(CC(=O)NNC(=O)O[C@H]3[C@H](C)[C@@H](O[C@@H]4O[C@H](C)C[C@H](N(C)C)[C@H]4O)[C@](C)(O)C[C@@H](C)CN(C)[C@H](C)[C@H]4OC(=O)O[C@]4(C)[C@@H](CC)OC(=O)[C@@H]3C)nn2)cc1 | 16 µg/mL (≈ 17.2 µM) | 32 µg/mL (≈ 34.4 µM) | 8 µg/mL (≈ 8.6 µM) | 8 µg/mL (≈ 8.6 µM) | 4 µg/mL (≈ 4.3 µM) | 8 µg/mL (≈ 8.6 µM) | 126 µg/mL (≈ 135 µM) | 16 µg/mL (≈ 17.2 µM) | 8 | inactive | Active | Active | Active
